Reference: PMC11997307, “Rat Sarcoma (RAS)-Protein-Targeting Synthetic Cell-Penetrating Peptide as an Anticancer Biomaterial” (Biomaterials Research, 2025)

What was measured:
[1] = target: T1, integrin alpha 3 (Homo sapiens, UniProt P26006); assay: SPR (Biacore) binding of RBP to immobilized integrin alpha 3 (selectivity control); details: CM5 chip, integrin alpha 3 immobilized, 11 concentrations of RBP
T1 sequence (P26006 33-1051): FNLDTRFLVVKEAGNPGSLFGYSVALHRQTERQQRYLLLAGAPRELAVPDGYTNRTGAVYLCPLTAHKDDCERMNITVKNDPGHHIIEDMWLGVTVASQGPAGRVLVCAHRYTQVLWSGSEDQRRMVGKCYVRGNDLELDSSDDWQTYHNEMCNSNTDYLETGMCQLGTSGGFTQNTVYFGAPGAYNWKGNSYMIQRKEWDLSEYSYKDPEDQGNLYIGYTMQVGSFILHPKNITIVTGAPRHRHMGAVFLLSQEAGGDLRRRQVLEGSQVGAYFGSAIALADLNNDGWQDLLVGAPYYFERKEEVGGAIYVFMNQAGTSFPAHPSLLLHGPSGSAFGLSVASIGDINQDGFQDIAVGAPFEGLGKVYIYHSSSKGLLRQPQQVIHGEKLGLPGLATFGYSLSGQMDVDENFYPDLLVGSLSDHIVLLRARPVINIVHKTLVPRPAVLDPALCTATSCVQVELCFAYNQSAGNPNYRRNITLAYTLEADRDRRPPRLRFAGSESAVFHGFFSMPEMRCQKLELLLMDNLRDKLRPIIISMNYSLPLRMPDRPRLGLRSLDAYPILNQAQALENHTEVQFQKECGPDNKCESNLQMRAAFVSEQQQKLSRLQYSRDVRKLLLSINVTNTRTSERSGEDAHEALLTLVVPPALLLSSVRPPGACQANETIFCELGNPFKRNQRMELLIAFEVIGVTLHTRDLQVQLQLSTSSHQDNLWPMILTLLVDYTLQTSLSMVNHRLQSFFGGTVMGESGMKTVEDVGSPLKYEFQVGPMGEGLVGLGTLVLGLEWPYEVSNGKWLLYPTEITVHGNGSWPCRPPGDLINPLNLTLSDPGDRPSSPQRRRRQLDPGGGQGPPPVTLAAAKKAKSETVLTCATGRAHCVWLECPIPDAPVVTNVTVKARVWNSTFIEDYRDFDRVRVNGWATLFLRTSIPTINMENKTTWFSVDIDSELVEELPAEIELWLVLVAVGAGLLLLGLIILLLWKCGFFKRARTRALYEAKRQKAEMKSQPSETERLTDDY
Protocol: N-Hydroxysuccinimide (NHS) and EDC were used as cross-linkers. The remaining unreacted active groups on the dextran surface were blocked with ethanolamine. The running buffer consisted of 150 mM NaCl, 5 mM EDTA, and 0.05% Tween 20 in 10 mM Hepes, pH 7.4. A CM5 chip without immobilized protein was used as the blank surface in the Biacore assay (Biacore T100, GE Healthcare Bio-Sciences AB, Uppsala, Sweden). […] The dissociation phase was conducted for 5 min.

[2] = test system: MDA-MB-231 cell-derived tumors; assay type: in vivo
Protocol: Fertilized white leghorn eggs, sourced from the Société Française de Production Avicole (St. Brieuc, France), were incubated for 9 d at 37.5 °C with 50% relative humidity. On embryonic day 9 (E9), a small hole was drilled into the air sac to lower the chorioallantoic membrane (CAM), and a 1-cm^2 window was created in the eggshell above the CAM. The MDA-MB-231 cell line was cultivated in DMEM supplemented with 10% FBS (and 1% penicillin/streptomycin). Cells (at 90% confluency, passages 30 to 32) were detached from culture plates with trypsin/EDTA, rinsed with complete medium, and suspended in graft medium. An inoculum of 1 × 10^6 cells was added onto the CAM of each egg. The eggs were randomly assigned to groups. On day 10 (E10), tumors were detectable. They were then treated every 2 d for 9 d (E11, E13, E15, and E17); specifically, 100 μl of the vehicle or 100 μl of the peptide (10 mg/kg) was added dropwise to the tumor. Angiogenesis was estimated by calculating the number of vessels on the CAM that irrigated tumors. Because tumors generated from MDA-MB-231 cells are hemorrhagic, images were obtained at E16 (2 d before collection to ensure that all vessels in the CAM were visible). On day 18 (E18), the upper portion of the CAM containing the tumor was removed, washed in PBS, and then directly transferred to paraformaldehyde (for 48 h for fixation). The tumors were then carefully removed from normal CAM tissue and weighed. The extent of treatment toxicity was evaluated according to the number of dead embryos after 9 d of treatment and observation of visible macroscopic abnormalities at the end point.
In parallel, a 1-cm^2 portion of the lower CAM was collected to evaluate the number of metastatic cells. Genomic DNA was extracted from the CAM and analyzed for human Alu sequences via quantitative polymerase chain reaction (qPCR) with specific primers. Calculation of the Cq for each sample, the mean Cq, and the number of metastases for each group were performed with the Bio-Rad CFX Maestro software (Bio-Rad, Hercules, CA, USA). According to the real-time PCR data markup language data standard (http://www.rdml.org), Cq is defined as the cycle at which the amplification curve […] (fractional PCR cycles). The Cq value is obtained in the exponential phase, where the qPCR curve is linear. This is the basic result of qPCR: lower Cq values indicate higher initial copy numbers of the target gene. When the PCR efficiency is 100%, a difference of 1 cycle between 2 reactions means that there are 2 times more copies (genes) in the reaction with the lower Cq value than in the reaction with the higher Cq value. One-way analysis of variance (ANOVA) with post hoc tests was performed on the data.
On day 18 (E18), 5 tumor samples per group (different from the tumor samples used for tumor weight determination) were collected to evaluate the infiltration of immune cells. Each tumor sample was cut to a small size (<0.5 cm^3) and kept in 5 volumes of RNAlater solution at 4 °C. The extracted RNA was analyzed via reverse transcription qPCR with specific primers for chicken CD3 and CD4 sequences. The Bio-Rad CFX Maestro software was used to calculate the Cq values for each sample, determine the mean Cq, and quantify the relative expression of immune cell markers in each group.
Three tumors per group were harvested and fixed in 4% formaldehyde, washed, and then stored in 70% ethanol until needed for experiments. The tumors were cut to a standard size and placed in an embedding cassette. The paraffin blocks were sectioned at a thickness of approximately 3 to 5 μm. The cells were placed on a glass slide, stained with hematoxylin and eosin (H&E) and Ki-67, and covered in an automated machine. Pictures were taken via a microscope (Olympus BX60, serial no. 7D04032, Shinjuku, Japan) at a magnification of ×4 and a microscope camera (Olympus DP73, serial no. OH05504, Shinjuku, Japan). […]

[3] = chicken egg CAM tumors, 10 mg/kg, E18, 5 tumors per group, normalized to GAPDH

Compound: C[C@@H](O)[C@H](NC(=O)[C@H](CO)NC(=O)[C@H](CS)NC(=O)[C@H](CCCCN)NC(=O)CN)C(=O)N[C@@H](CCCNC(=N)N)C(=O)NCC(=O)N[C@@H](CCCNC(=N)N)C(=O)N[C@@H](CCCCN)C(=O)N[C@@H](CS)C(=O)N[C@@H](CS)C(=O)N[C@@H](CCCNC(=N)N)C(=O)N[C@@H](CCCNC(=N)N)C(=O)N[C@@H](CCCCN)C(=O)N[C@@H](CCCCN)C(N)=O [RBP]
- binding to unrelated receptor integrin alpha 3 [1]: did not bind
- Ki-67 expression in tumor sections (IHC) ([2]; chicken egg CAM tumors, 10 mg/kg): reduced Ki-67 expression
- infiltration of CD3-positive immune cells in tumors (chicken CD3 mRNA, RT-qPCR) [2, 3]: increased infiltration
- infiltration of CD4-positive immune cells in tumors (chicken CD4 mRNA, RT-qPCR) [2, 3]: increased infiltration
- formation of microvessels ([2]; chicken egg CAM, 10 mg/kg, E16): significantly suppressed
- metastasis of MDA-MB-231 cells to lower CAM (human Alu qPCR) ([2]; chicken egg CAM, 10 mg/kg, E18, P < 0.01 vs Neg Ctrl): significantly inhibited
- number of vessels reaching and feeding the tumors ([2]; chicken egg CAM, 10 mg/kg, images at E16, P < 0.05 vs Neg Ctrl): significantly reduced
- average tumor weight ([2]; chicken egg CAM, MDA-MB-231, 10 mg/kg at E11, E13, E15, E17, collected E18, mean ± SD, P < 0.01 vs Neg Ctrl (54.40 ± 12.22 mg)): 22.10 ± 5.86 mg
- embryo mortality compared to negative control ([2]; in vivo, 10 mg/kg): no statistically significant difference
